Source: US8507551B2, “Antimicrobial therapy for bacterial infections” (priority 2005, dated 2013)

How the values were obtained:
[1] = system: WT and ΔCrtM S. aureus in human neutrophils; conditions: FIG. 2d
Experimental: Neutrophils were purified from healthy human volunteers using a Histopaque gradient (Sigma) per manufacturer's directions. Intracellular survival assays were performed as follows. Bacterial cultures were washed twice in PBS, diluted to a concentration of 4.5×10^6 cfu in 100 μl RPMI+10% FCS, and mixed with 3×10^5 neutrophils in the same media (multiplicity of infection, MOI=15:1), centrifuged at 700×g for 5 min, then incubated at 37° C. in a 5% CO2 incubator. Gentamicin (Gibco) (final concentration 400 μg/ml for S. aureus and 100 μg/ml for S. pyogenes) was added after 10 min to kill extracellular bacteria. At specified time points, the contents of sample wells were withdrawn, centrifuged to pellet the neutrophils, and washed to remove the antibiotic medium. Neutrophils were then lysed in 0.02% triton-X, and cfu calculated by plating on THA. Several assays were repeated with addition of a step involving preincubation of the bacterial inoculum with 10% autologous human serum for 15 min on ice.

[2] = system: WT and ΔCrtM S. aureus in mouse blood; conditions: FIG. 6c
Experimental: Bacteria were washed twice in PBS, diluted to an inoculum of 10^4 cfu in 25 μl PBS, and mixed with 75 μl of freshly drawn human or mouse blood in heparinized tubes. The tubes were incubated at 37° C. for 4 h with agitation, at which time dilutions were plated on THA for enumeration of surviving cfu.

WT strain of S. aureus [3] = assay: Pigment production of S. aureus grown in the presence of the agent; assay type: cell-based, Staphylococcus aureus; conditions: FIG. 4a
Experimental: (§1) Wild-type and ΔCrtM mutant S. aureus were cultured in the presence or absence of SKF 525-A at the indicated concentrations. Depicted are the observed effects on A) pigmentation phenotype, B) singlet oxygen susceptibility, and C) survival in murine whole blood. Results shown are representative of at least three experiments.
Wild-type S. aureus strain (Pig1), isolated from the skin of a child with atopic dermatitis. Streptococcus pyogenes strain 5448 is a well-characterized serotype M1T1 clinical isolate^18. CD1 and C57Bl/6 mice were purchased from Charles River. The gp91^Phox−/− mice were bred at the Veteran's Administration Medical Center, San Diego and maintained on trimethoprim/sulfamethoxazole prophylaxis until 3 d prior to experiments. S. aureus and S. pyogenes were propagated in Todd-Hewitt broth (THB) or on THB agar (Difco, Detroit, Mich.). Unless otherwise indicated, all experiments were performed with bacteria derived from S. aureus 36-48 h stationary phase cultures or S. pyogenes 24 h stationary phase cultures, a point when pigmentation phenotypes were readily apparent.
Stationary phase (48 h) cultures of WT S. aureus Pig1 and its isogenic ΔCrtM mutant were subjected to methanol extraction. The absorbance profile of the extracts was measured with a MBA 2000 spectrophotometer (Perkin Elmer). […]

WT S. aureus [4] = assay: Singlet oxygen susceptibility assay (methylene blue and light), WT strain; assay type: cell-based, Staphylococcus aureus; conditions: WT S. aureus cultured with SKF 525-A, FIG. 4b
Experimental: as §1
(§2) Tests for susceptibility to oxidants were performed either in PBS (S. aureus) or THB (S. pyogenes). Hydrogen peroxide (H2O2) was added to 1.5% final concentration, […] bacteria incubated at 37° C. for 1 h, then 1,000 U/ml of catalase (Sigma) added to quench residual H2O2. […] For the singlet oxygen assay, 10^8 S. aureus or 4×10^8 S. pyogenes were incubated at 37° C. in individual wells of a 24-well culture plate in the presence or absence of 1-6 μg/ml methylene blue and situated exactly 10 cm from a 100-watt light source. Bacterial viability was assessed after 1-3 h by plating dilutions on THA.
(§3) Given the protective effect provided to the bacteria by the golden yellow pigments, a pharmacologic agent that inhibits carotenogenesis might render S. aureus more susceptible to immune clearance.

ΔCrtM mutant S. aureus [5] = assay: Singlet oxygen susceptibility assay (methylene blue and light), ΔCrtM mutant control; assay type: cell-based, Staphylococcus aureus; conditions: ΔCrtM mutant exposed to SKF 525-A, FIG. 4b
Experimental: as §1, §2, §3

WT S. aureus [6] = assay: Whole blood killing assay, WT strain; assay type: cell-based, Staphylococcus aureus; conditions: WT S. aureus cultured with SKF 525-A, FIG. 4c
Experimental: Wild-type and ΔCrtM mutant S. aureus were cultured in the presence or absence of SKF 525-A at the indicated concentrations. […] Results shown are representative of at least three experiments.
as §3

ΔCrtM mutant S. aureus [7] = assay: Whole blood killing assay, ΔCrtM mutant control; assay type: cell-based, Staphylococcus aureus; conditions: ΔCrtM mutant exposed to SKF 525-A, FIG. 4c
Experimental: as §1, §3

WT strain of S. aureus [8] = conditions: earlier report; moderate residual accumulation of δ carotenoid intermediate noted; cited from earlier work
WT and ΔCrtM S. aureus = assay: Protease and cathelicidin sensitivity assays; assay type: cell-based, Staphylococcus aureus; conditions: WT vs ΔCrtM S. aureus, 2 h at 37° C., FIG. 6d, e
Experimental: Human neutrophil elastase, and cathepsin G were purchased from Calbiochem. The antimicrobial peptide mCRAMP was synthesized at the Louisiana State University Protein Facility (Martha Juban, Director). S. aureus cultures were diluted (1:2,000) in 10 mM phosphate buffer (pH 7.2)+0.5% LB to 1×10^6 CFU/ml. Ninety μl of this bacterial suspension was added to replicate wells in a 96-well plate. Dilutions of the cathepsin G (20 and 100 mU/ml), human neutrophil elastase (12.5 and 50 μg/ml), and murine CRAMP (0.4-3 μM) were prepared in 10 mM phosphate buffer and added to wells in 10 μl volume; 10 mM phosphate buffer alone was used as a negative control. After 2 h incubation at 37° C., 25 μl aliquots of each well were serially diluted in PBS and plated on THB. Each experiment was performed in duplicate and repeated.

With c1ccc2c(c1)[I+]c1ccccc1-2 [DPI, diphenyleneiodonium] the “survival of WT and ΔCrtM S. aureus in human neutrophils when oxidative burst inhibited” value [1] was “survived equally well” and the “survival of WT and ΔCrtM S. aureus in mouse blood when oxidative burst inhibited” value [2] was “survived equally well”.

With CCCC(C(=O)OCCN(CC)CC)(c1ccccc1)c1ccccc1 [SKF 525-A, 2-diethylaminoethyl-2,2-diphenyl-valerate] the pigment production (WT strain of S. aureus [3]) was “dose-dependent decrease”, the “susceptibility to singlet oxygen killing” value (WT S. aureus [4]) was “dose-dependent increase” and the “effect on oxidant susceptibility” value (ΔCrtM mutant S. aureus [5]) was “no significant effects”. For the same molecule, the “ability to survive in human whole blood” value (WT S. aureus [6]) was “decrease”, the “effect on blood survival” value (ΔCrtM mutant S. aureus [7]) was “no significant effects” and the “pigment formation in S. aureus (previously shown)” value (WT strain of S. aureus [8]) was “inhibit pigment formation”.

For “cathepsin G: granule protease purchased from Calbiochem”, the “susceptibility of S. aureus to antimicrobial action” value (from here on “susceptibility of S. aureus”) (WT and ΔCrtM S. aureus) was “no difference”.

For “human neutrophil elastase: granule protease purchased from Calbiochem”, the “susceptibility of S. aureus” value (WT and ΔCrtM S. aureus) was “resistant”.

For “mCRAMP: murine cathelicidin antimicrobial peptide, synthesized at Louisiana State University Protein Facility (ISRLAGLLRKGGEKIGEKLKKIGQKIKNFFQKLVPQPE; Cathelin-related antimicrobial peptide; UniProt P51437 135-172, looked up)”, the “susceptibility of S. aureus” value (WT and ΔCrtM S. aureus) was “equally susceptible”.
